Assay results taken from patent US20240368149A1, “ANALOGS OF XANOMELINE” (Terran Biosciences Inc., priority 2023, published 2024).
Read-outs that look alike come from different tables or passages of the source.

Experiments:
[1] = Rat PK: plasma prodrug concentration after intravenous (IV) dosing of xanomeline prodrugs at 1 mg/kg (Example A-6); assay type: in vivo, male Sprague-Dawley (SD) rats; details: male, Sprague-Dawley, IV 1 mg/kg of xanomeline; for concentration at 0.25 h / concentration at 0.5 h / concentration at 0.75 h / Cmax / AUC(0-inf) / AUC(0-t): iv, 1 mg/kg; for concentration at 0.25 h: 0.250 h; for concentration at 0.25 h / concentration at 0.5 h / concentration at 0.75 h: read-out: Prodrug Plasma Concentrations Following Intravenous Dosing; for concentration at 0.5 h: 0.500 h; for concentration at 0.75 h: 0.750 h; for AUC(0-inf): read-out: Prodrug AUCINF_obs; for AUC(0-t): read-out: Prodrug AUClast
Method: (§1) • Step 1: A stock solution of the compound(s) were prepared to 1 mg/ml in DMSO • Step 2: A 10,000 ng/mL matched matrix standard was prepared using the stock solution(s) • Step 3: Calibration standards in matched matrix were prepared between 10,000 ng/ml and 0.5 ng/mL using serial dilution • Step 4: QC samples were prepared in matched matrix at 4000, 800, 400, 40 and 10 ng/mL
(§2) • Step 1: Add 10 μL of the standards, QCs and samples to a 96-well plate (extraction plate) • Step 2: To each standard, QC and test sample, add 100 μL of ISZ • Step 3: Sonicate for 2 min then mix the plate for approximately 2 min at 1200 rpm on a plate shaker • Step 4: Centrifuge the plate at 3000 rpm for 5 min • Step 5: Add 50 μL 0.1% formic acid in UP H2O to wells of a new 96-well plate • Step 6: Transfer 50 μL extracted sample to relevant position in second 96-well plate • Step 7: Mix at 1200 rpm for 2 min • Step 8: Heat seal and analyse on the LC-MS/MS system • Instrument: Xevo TQ-D with CTC Autosampler
(§3) Samples were sent for method optimization and measurement of prodrug via unique calibration lines and following acceptance QC's. Dose formulation concentrations were also measured, and PK parameters were determined (Cmax (ng/mL), Tmax (hr), Cl (ml/min/kg), Vdss (L/kg), t½ (hr), AUC0-t (ng/mL*hr), AUC0-inf (ng/mL*hr), MRT (hr), Bioavailability (% F) where warranted) using WinNon Lin software. Data (including bioanalytical results and assay performance) were reported in a tabulated format and QC'd.
Compound was dissolved in DMSO:HPCD (20% w/v in water) [10:90] 0.5 mg API/mL to provide doses of 1 mg/kg when administered IV in a 2 mL/kg dosing volume.
The pharmacokinetic properties of the synthesized xanomeline prodrugs after intravenous administration in a rat model were assessed. The concentration of prodrug was measured in each rat at various sampling timepoints after intravenous administration of the synthesized xanomeline prodrugs to rats.
Dose formulations were made at equivalent concentrations of active compound (xanomeline) adjusted for molecular weight of the compounds. The synthesized xanomeline prodrugs were dosed at 1 mg/kg intravenous (IV) nominal dose. Nominal doses were used in PK parameter determinations.

[2] = Rat PK: plasma prodrug concentration after intramuscular (IM) dosing of xanomeline prodrugs at 5 mg/kg (Example A-4); assay type: in vivo, male Sprague-Dawley (SD) rats; details: male, Sprague-Dawley, IM 5 mg/kg of xanomeline; for Cmax / AUC(0-inf) / AUC(0-t): im; for AUC(0-inf): read-out: Prodrug AUCINF_obs; for AUC(0-t): read-out: Prodrug AUClast; for concentration at 0.5 h: 0.500 h
Method: as §1, §2, §3
Formulation for IM administration: All compounds were formulated as solutions or fine suspensions in saline at 12.5 mg API/mL. This provided doses of 5 mg/kg (equivalent of xanomeline) when given to a 250 g rat in a 100 μL dosing volume.
The pharmacokinetic properties of the synthesized xanomeline prodrugs after intramuscular administration in a rat model were assessed. The concentration of prodrug was measured in each rat at various sampling timepoints after intramuscular administration of the synthesized xanomeline prodrugs to rats.
Dose formulations were made at equivalent concentrations of active compound (xanomeline) adjusted for molecular weight of the compounds. The synthesized xanomeline prodrugs were dosed at 5 mg/kg intramuscular (IM) nominal dose. Nominal doses were used in PK parameter determinations.

[3] = analyte prodrug, individual animals
[4] = 5 mg/kg, analyte prodrug, individual animals
[5] = intramuscular, 5 mg/kg, Mean, read-out: Prodrug Plasma Concentrations Following Intramuscular Dosing
[6] = intramuscular, 5 mg/kg, individual animals, read-out: Prodrug Plasma Concentrations Following Intramuscular Dosing

**Q.** What does the source list for `CCCCCCOc1nsnc1C1=CCC[N+](C)(C(C)OC(=O)C(C)(C)C)C1` (stereo not drawn) [Compound 19]?
**A.** Tmax [1, 3]: 15 min; concentration at 0.25 h ([1]; Mean): 0.0272 µg/mL; concentration at 0.25 h ([1]; individual animals): 0.0354 µg/mL; concentration at 0.5 h ([1]; Mean): 0.0118 µg/mL; concentration at 0.5 h ([1]; individual animals): 0.0152 µg/mL; concentration at 0.75 h ([1]; Mean): 0.0071 µg/mL; concentration at 0.75 h ([1]; individual animals): 0.00862 µg/mL; Cmax ([1]; analyte prodrug, Mean): 0.0272 µg/mL; AUC(0-inf) ([1]; analyte prodrug, Mean): 0.0229 µg·h/mL; AUC(0-t) ([1]; analyte prodrug, Mean): 0.0178 µg·h/mL; Cmax [1, 3]: 0.0354 µg/mL; AUC(0-inf) [1, 3]: 0.0271 µg·h/mL; AUC(0-t) [1, 3]: 0.024 µg·h/mL; Tmax ([2]; analyte prodrug, Mean): 30 min; Cmax ([2]; 5 mg/kg, analyte prodrug, Mean): 0.218 µg/mL; AUC(0-inf) ([2]; 5 mg/kg, analyte prodrug, Mean): 0.697 µg·h/mL; AUC(0-t) ([2]; 5 mg/kg, analyte prodrug, Mean): 0.618 µg·h/mL; Cmax [2, 4]: 0.284 µg/mL; AUC(0-inf) [2, 4]: 0.891 µg·h/mL; AUC(0-t) [2, 4]: 0.667 µg·h/mL; concentration at 0.5 h [2, 5]: 0.218 µg/mL; concentration at 0.5 h [2, 6]: 0.284 µg/mL; concentration at 1 h [2, 5]: 0.128 µg/mL; concentration at 1 h [2, 6]: 0.115 µg/mL; concentration at 2 h [2, 5]: 0.083 µg/mL; concentration at 2 h [2, 6]: 0.0802 µg/mL; concentration at 4 h [2, 5]: 0.0359 µg/mL; concentration at 4 h [2, 6]: 0.0386 µg/mL; concentration at 8 h ([2]; intramuscular, 5 mg/kg, 8.00 h, Mean, read-out: Prodrug Plasma Concentrations Following Intramuscular Dosing): 0.0137 µg/mL; concentration at 24 h ([2]; intramuscular, 5 mg/kg, 24.0 h, Mean, read-out: Prodrug Plasma Concentrations Following Intramuscular Dosing): 0.00159 µg/mL; concentration at 31 h [2, 5]: 0.00104 µg/mL; concentration at 31 h [2, 6]: 0.00101 µg/mL; concentration at 48 h [2, 5]: 0.000666 µg/mL; concentration at 48 h [2, 6]: 0.000775 µg/mL; concentration at 96 h [2, 5]: 0.000255 µg/mL; concentration at 96 h [2, 6]: 0.000764 µg/mL
